Legend:
[1] = test system: MRSA ON184; assay: MBC/MFC determination; assay type: cell-based, Staphylococcus aureus; details: alone
Method: (§1) An assay was made using a minimum inhibitory concentration (MIC) and minimum bactericidal concentration (MBC) and minimum fungicidal concentration (MFC) determination. The MIC was determined by the micro broth dilution method in 96-well plates. Serial two-fold dilutions of tetrasodium EDTA (from 2% to 0.015%), ethanol (from 50% to 0.1%) and chlorhexidine HCl (from 100 µg/mL to 0.025 µg/mL) were prepared in MH broth with a final volume of 90 µL per well. A 10 µL containing 1 × 10^5 bacterial cells or 2 × 10^3 fungal cells were added to each well. The inoculated plates were covered with a lid, sealed with Parafilm, and incubated for 24 h at 37° C. with slight rocking on a tilting platform shaker. After incubation, the optical density at 600 nm (OD 600 ) of the cultures in each well was measured using an xMark™ Microplate Absorbance Spectrophotometer (Bio-Rad). […] MBCs and MFCs were determined by transferring 100 µL from each well with no apparent growth onto appropriate agar plates, followed by incubation for 24 h at 37° C.

[2] = test system: Candida albicans SK4b; assay: MBC/MFC determination; assay type: cell-based; details: alone; C. albicans SK4b
Method: as §1

[3] = test system: Escherichia coli ON29; assay: MBC/MFC determination; assay type: cell-based; details: alone; E. coli ON29
Method: as §1

[4] = test system: Serratia marcescens SK2; assay: MBC/MFC determination; assay type: cell-based; details: alone; S. marcescens SK2
Method: as §1

[5] = test system: Staphylococcus aureus ON89; assay: MBC/MFC determination; assay type: cell-based; details: alone; S. aureus ON89
Method: as §1

[6] = test system: Stenotrophomonas maltophilia ON17; assay: MBC/MFC determination; assay type: cell-based; details: alone; S. maltophilia ON17
Method: as §1

[7] = test system: S. epidermidis SK9; assay: Checkerboard titration, FMCI; assay type: cell-based, Staphylococcus epidermidis
Method: as §1
(§2) A fourth composition and solution included tetrasodium EDTA with ethanol or chlorhexidine HCl. This fourth composition and solution were created using checkerboard titration methods using micro broth dilution in 96-well microtiter plates. The concentrations of antimicrobials used were based on previously determined MIC values. Briefly, 200 µL of two-fold dilutions of tetrasodium EDTA and ethanol or chlorhexidine HCl were prepared in MH or MH II broth with standardized cell suspension. […] Microtiter plates were incubated at 37° C. for 24 h, and the results were analyzed. Each test was performed in duplicate and included a growth control without adding any antimicrobials.

[8] = test system: E. coli SK2; assay: Checkerboard titration, FMCI; assay type: cell-based, Escherichia coli
Method: as §1, §2

[9] = test system: Candida albicans SK4b biofilm; assay: MBEC Assay, 48-h biofilm, 24 h exposure; assay type: cell-based; details: C. albicans SK4b
Method: (§3) A biofilm cultivation cell composition was provided. This fifth composition was created using an MBEC Assay® biofilm inoculator, consisting of a polystyrene lid with 96 downward-protruding pegs and a corresponding base used to grow biofilms. A standardized inoculum was diluted in an appropriate biofilm growth medium to achieve a viable cell count of 1.5 × 10^6 CFU/mL of bacterial cells or […] CFU/mL of fungal cells. Then, 150 µL of this inoculum was transferred into each appropriate well, and the peg lids were inserted into the microtiter plates. The plates were sealed with Parafilm and were incubated at optimum temperature for 48 h with slight rocking for bacteria and shaking at 200 rpm for fungal strains. After incubation, the peg lid was removed from the base and rinsed twice with sterile phosphate-buffered saline (PBS) for 2 min to remove loosely attached non-sessile cells. Before the antimicrobial challenge, the pegs in column 1 (n = 8) were considered the biofilm growth control; these pegs were removed from the lids, placed into 200 µL of recovery medium, and analyzed for starting biofilm cell numbers as described below. The rinsed pegs were placed into new 96-well plates containing two-fold dilutions of antimicrobials such as tetrasodium EDTA (4 %-0.0125%), ethanol (100%-0.2%), and chlorhexidine HCl (100 µg/mL-0.4 µg/mL) in 200 µL of suitable biofilm growth medium per well and incubated at optimum temperature for 24 h. After the antimicrobial challenge, the pegs were rinsed twice with sterile PBS for 2 min and placed into a new 96-well plate containing 200 µL of recovery medium. The recovery plates were sealed with Parafilm, and biofilm cells were dislodged from the pegs by sonication for 30 min with a Branson 3510 bath sonicator. The biofilm cells in the recovery medium were serially diluted, and a drop dilution assay was performed to enumerate the viable cells. MBEC values were determined as the minimum concentration of antimicrobials that yielded a viable cell count at or lower than the 125 CFU/mL detection limit.

[10] = test system: Escherichia coli SK2 biofilm; assay: MBEC Assay, 48-h biofilm, 24 h exposure; assay type: cell-based; details: E. coli SK2
Method: as §3

[11] = test system: Proteus mirabilis ON153 biofilm; assay: MBEC Assay, 48-h biofilm, 24 h exposure; assay type: cell-based; details: P. mirabilis ON153
Method: as §3

[12] = test system: Pseudomonas aeruginosa SK1 biofilm; assay: MBEC Assay, 48-h biofilm, 24 h exposure; assay type: cell-based; details: P. aeruginosa SK1
Method: as §3

[13] = test system: Staphylococcus aureus ON89 biofilm; assay: MBEC Assay, 48-h biofilm, 24 h exposure; assay type: cell-based; details: S. aureus ON89
Method: as §3

[14] = test system: Staphylococcus epidermidis SK9 biofilm; assay: MBEC Assay, 48-h biofilm, 24 h exposure; assay type: cell-based; details: S. epidermidis SK9
Method: as §3

[15] = test system: 48-h-old biofilms of bacterial and fungal strains; assay: MBEC Assay, 24 h exposure (summary); assay type: cell-based; details: following 24 h of treatment
Method: as §3, with “The rinsed pegs were placed into new 96-well plates containing two-fold dilutions of antimicrobials such as tetrasodium EDTA (4 %-0.0125%), ethanol (100%-0.2%), and chlorhexidine HCl (100 µg/mL-0.4 µg/mL) in 200 µL of suitable biofilm growth medium per well and incubated at optimum temperature for 24 h.” left out

[16] = tetrasodium EDTA + chlorhexidine HCl

O=C([O-])CN(CCN(CC(=O)[O-])CC(=O)[O-])CC(=O)[O-].[Na+].[Na+].[Na+].[Na+] [EDTA, tetrasodium EDTA]
MBC/MFC [1]: 2 % w/v
MBC/MFC [2]: 1 % w/v
MBC/MFC [3]: 1 % w/v
MBC/MFC [4]: 2 % w/v
MBC/MFC [5]: 1 % w/v
MBC/MFC [6]: 1 % w/v
Concentration in combination giving FMCI [7, 16]: 0.008 % w/v
Concentration in combination giving FMCI ([7]; tetrasodium EDTA + ethanol): 0.031 % w/v
Concentration in combination giving FMCI [8, 16]: 0.015 % w/v
Concentration in combination giving FMCI ([8]; tetrasodium EDTA + ethanol): 0.25 % w/v
MBEC [9]: 1 % w/v
MBEC [10]: 2 % w/v
MBEC [11]: 4 % w/v
MBEC [12]: 4 % w/v
MBEC [13]: 4 % w/v
MBEC [14]: 2 % w/v
Concentration alone able to eradicate all established biofilms [15]: 4%

Reference: patent US20230264009A1, “DISINFECTING CAP KIT FOR LUER ACCESS DEVICES” (SterileCare Inc., priority 2022, published 2023)
